We go through 13 molecules from PubChem BioAssay (NCI).

Holding throughout (test): NCI-60 cell line screen, 48 h
For assay [1], the system named is A498 renal.
The test system of assay [2] is ACHN renal.
For assay [3], the system named is CAKI-1 renal.
Assay [4] deals with LOX IMVI melanoma.
The test system of assay [5] is OVCAR-3 ovarian.
For assay [6], the system named is RPMI-8226 leukemia.
The test system of assay [7] is SF-268 CNS.
Assay [8] relates to SK-MEL-2 melanoma.
Assay [9] deals with SK-MEL-28 melanoma.
The subject of assay [10] is SW-620 colon.

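Values below derive from 48-hour exposures of cells grown in 96-well plates, with endpoints linearly interpolated between the two concentrations bracketing the appropriate inhibition level. Here, GI50 denotes the concentration required for 50% inhibition of growth. TGI: concentration producing complete growth inhibition.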 Where only a bound is given, the exact number is not on record here.

On to `O=C(/C=C/c1ccccc1)NNC(=O)c1c(Cl)c(Cl)c(Cl)c(Cl)c1-c1nc2ccccc2[nH]1`, for which the TGI in assay [1] is 90.9 µM; in [2] it was over 100 µM; in assay [3], over 100 µM; in assay [4], 59.6 µM; in assay [5] it was over 100 µM; in assay [6], 83.2 µM. Further, the TGI was over 100 µM in assay [7], 80.8 µM in [8], over 100 µM in assay [9] and over 100 µM in assay [10].
On to `O=C(C[n+]1ccc2ccccc2c1)c1ccc2ccc3ccccc3c2c1`, for which the TGI is 18.6 µM in assay [1]; 14.8 µM in assay [2]; 20.1 µM in assay [3]; 6.57 µM in [4]; 17.7 µM in [5]; 0.646 µM in assay [6]. The TGI in [7] was 19.9 µM; in assay [8], 15.9 µM; in assay [9], 9.08 µM; in [10], 13.1 µM.
Consider `O=c1[nH]nc(NNc2ccccc2)c2nnn(C3CCCCC3)c12`, for which the TGI in [2], in assay [3], in [4], in assay [5], in assay [6] and in assay [8] was over 100 µM in each case. The molecule also had a TGI in assay [9] of over 100 µM.
In the case of `CCOC(=O)C1=NN(c2ccc(C)cc2)C2=CC(C)=NN(C)C(=S)N21`, the TGI was over 100 µM in [2]; 55.1 µM in [3]; over 100 µM in assay [4]; over 100 µM in [5]; over 100 µM in [6]; over 100 µM in [7]. Also, the TGI in assay [8], in [9] and in [10] was over 100 µM throughout.
As to `NCCCCc1cc(O)c2c(c1O)C(=O)c1ccccc1C2=O`, the TGI came to 37.2 µM in [1]; 25.4 µM in assay [2]; 27.2 µM in assay [3]; 21.2 µM in assay [4]; 19.4 µM in assay [5]; 29.2 µM in [6]. In addition, the TGI in assay [7] is 29.9 µM; in assay [8] it was 32.4 µM; in assay [9] it was 33.6 µM; in [10], over 44.2 µM.
As to `NCCSC(c1ccccc1)c1ccccc1`, the TGI in assay [1] is 62.5 µM; in assay [2] it was over 100 µM; in assay [3] it was 67.2 µM; in [4], 31.2 µM; in [5], 40.6 µM; in assay [6], 37.4 µM. In addition, the TGI in assay [7] was over 100 µM; in assay [8], 32.8 µM; in [9] it was 35.7 µM; in [10], 37.9 µM.
Turning to `Cc1nn(-c2ccccc2)c(C)c1/C=N/N=C1\SCC(=O)N1c1ccccc1`, the TGI in assay [1] was found to be 78.3 µM; in [2], 34.4 µM; in assay [3], 44.9 µM; in [4], 48.1 µM; in assay [5], 78.3 µM; in [6], 35.3 µM. The TGI in [7] is over 100 µM; in assay [8], 58.4 µM; in assay [9], 67.9 µM; in [10], over 100 µM.
As to `COc1cc2c(cc1O)CC[C@@H]1[C@@H]2CC[C@]2(C)[C@@H](OCCN(C)C)CC[C@@H]12`, the GI50 was 0.569 µM in [1]; 1.45 µM in assay [3]; 0.0949 µM in [4]; 0.183 µM in assay [5]; 0.116 µM in [6]; 0.353 µM in assay [7]. Further, the GI50 in [8] was 0.23 µM; in assay [10], 0.163 µM. The TGI in [1] worked out at 1.37 µM; in [3], 6.19 µM; in assay [4], 0.192 µM; in [5] it was 0.966 µM; in [6], 0.312 µM; in assay [7], 5.29 µM. The TGI in assay [8] stood at 1.04 µM; in assay [10], 0.763 µM.
With `CC(=O)C1=C(C)N(c2ccc(C)cc2)C2(O)C=CC(=O)C3C(=O)N(c4ccccc4)C(=O)C132` (configuration not stated), the TGI in assay [1] was 39.6 µM; in assay [2], 40.4 µM; in assay [3] it was 45.4 µM; in assay [5], over 100 µM; in assay [6], over 100 µM; in [7], over 100 µM. The TGI in [8] came to 28.8 µM; in assay [9] it was 43.8 µM; in assay [10] it was 22.7 µM.
For the molecule `CC12CC3OC(=O)C1COC14OC5(C2C1=O)C(O)(CCC1C4CC(O)C2(O)CC=CC(=O)C12C)C(=O)OC35C` (configuration not stated), the TGI in assay [2], in assay [3], in [4], in assay [5], in assay [6] and in assay [7] was over 100 µM in each case. Besides, the TGI in [8], in assay [9] and in assay [10] was over 100 µM in each case.
On to `CCC1CN(C(=O)c2ccccc2)C(Cc2c[nH]c3ccccc23)C(=O)C1CC(=O)OC` (configuration not stated), for which the TGI in assay [1] was 64.3 µM; in [2], over 100 µM; in assay [3], over 100 µM; in assay [4], over 100 µM; in assay [7], over 100 µM; in [8], over 100 µM. The TGI in assay [9] and in [10] was over 100 µM in each case.
As to `CCC(C)C1=C(OC(C)=O)[N+]2([O-])Oc3ccc(-c4c(OC(C)=O)c(OC(C)=O)c(-c5ccc(OC(C)=O)cc5)c(OC(C)=O)c4OC(C)=O)cc3OC2(C(C)CC)C(=O)N1OC(C)=O` (configuration not stated), the TGI in assay [1] was over 50 µM; in [2] it was over 50 µM; in assay [3], over 50 µM; in [4], 43.5 µM; in [5], 29.5 µM; in assay [6], 22.8 µM. For the same molecule, the TGI is 37.6 µM in assay [7], 43.2 µM in [8], 44.7 µM in assay [9] and over 50 µM in assay [10].
For `CCN(CC(=O)O)C(=O)c1cccnc1`, the TGI in [1], in assay [2], in assay [3], in [4], in assay [5] and in [7] was over 100 µM throughout. Besides, the TGI in [8], in [9] and in [10] was over 100 µM throughout.
